Reference: PubChem BioAssay (NCI)
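Exposure lasted 48 hours, with cells grown in 96-well plates and compounds tested at five concentrations. At the GI50, growth is halved. TGI: total growth inhibition.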

Assays:
Test in all cases: NCI-60 cell line screen, 48 h
[1] = system: 786-0 renal
[2] = system: A498 renal
[3] = system: A549 NSCLC
[4] = system: ACHN renal
[5] = system: BT-549 breast
[6] = system: CAKI-1 renal
[7] = system: CCRF-CEM leukemia
[8] = system: COLO 205 colon
[9] = system: DU-145 prostate
[10] = system: HCC-2998 colon
[11] = system: HCT-116 colon
[12] = system: HCT-15 colon
[13] = system: HL-60(TB) leukemia
[14] = system: HOP-62 NSCLC
[15] = system: HOP-92 NSCLC
[16] = system: HS 578T breast
[17] = system: HT29 colon
[18] = system: IGROV1 ovarian
[19] = system: K-562 leukemia
[20] = system: KM12 colon
[21] = system: LOX IMVI melanoma
[22] = system: M14 melanoma
[23] = system: MALME-3M melanoma
[24] = system: MCF7 breast
[25] = system: MDA-MB-231 breast
[26] = system: MDA-MB-435
[27] = system: MOLT-4 leukemia
[28] = system: NCI-H226 lung
[29] = system: NCI-H23 lung
[30] = system: NCI-H460 lung
[31] = system: NCI-H522 lung
[32] = system: NCI/ADR-RES ovarian
[33] = system: OVCAR-3 ovarian
[34] = system: OVCAR-4 ovarian
[35] = system: OVCAR-5 ovarian
[36] = system: OVCAR-8 ovarian
[37] = system: PC-3 prostate
[38] = system: RPMI-8226 leukemia
[39] = system: RXF 393 renal
[40] = system: SF-268 CNS
[41] = system: SF-295 CNS
[42] = system: SF-539 CNS
[43] = system: SK-MEL-2 melanoma
[44] = system: SK-MEL-5 melanoma
[45] = system: SK-OV-3 ovarian
[46] = system: SN12C renal
[47] = system: SNB-19 CNS
[48] = system: SNB-75 CNS
[49] = system: SR leukemia
[50] = system: SW-620 colon
[51] = system: T-47D breast
[52] = system: TK-10 renal
[53] = system: U251 CNS
[54] = system: UACC-257 melanoma
[55] = system: UACC-62 melanoma
[56] = system: UO-31 renal

For CCC(CC)n1cnc2c(-c3cnc(N)cn3)nc(N3CC4CCC(C3)O4)nc21, the GI50 [1] was 237 nM, the TGI [1] was over 100 µM and the GI50 [2] was 74.9 nM. For the same compound, the TGI [2] was 466 nM, the GI50 [3] was 405 nM and the TGI [3] was over 100 µM. For the same compound, the GI50 [4] was 324 nM, the TGI [4] was over 100 µM and the GI50 [5] was 108 nM. The TGI [5] was 2500 nM, the GI50 [6] was 108 nM and the TGI [6] was 1730 nM. It also gave a GI50 [7] of 443 nM, a TGI [7] of over 100 µM and a GI50 [8] of 269 nM. The TGI [8] was over 83 µM, the GI50 [9] was 930 nM and the TGI [9] was over 100 µM. It also gave a GI50 [10] of 465 nM, a TGI [10] of over 100 µM and a GI50 [11] of 630 nM. The TGI [11] was over 100 µM, the GI50 [12] was 432 nM and the TGI [12] was over 100 µM. For the same compound, the GI50 [13] was 1410 nM, the TGI [13] was over 100 µM and the GI50 [14] was 1080 nM. It also gave a TGI [14] of over 100 µM, a GI50 [15] of 13 nM and a TGI [15] of 145 nM. The GI50 [16] was 209 nM, the TGI [16] was 1610 nM and the GI50 [17] was 742 nM. It also gave a TGI [17] of over 100 µM, a GI50 [18] of 92.9 nM and a TGI [18] of 1130 nM. It also gave a GI50 [19] of 854 nM, a TGI [19] of over 100 µM and a GI50 [20] of 377 nM. For the same compound, the TGI [20] was over 100 µM, the GI50 [21] was 428 nM and the TGI [21] was over 100 µM. It also gave a GI50 [22] of 151 nM, a TGI [22] of over 100 µM and a GI50 [23] of 47.2 nM. The TGI [23] was 688 nM, the GI50 [24] was 156 nM and the TGI [24] was over 100 µM. It also gave a GI50 [25] of 191 nM, a TGI [25] of over 100 µM and a GI50 [26] of 314 nM. It also gave a TGI [26] of 4.63 µM, a GI50 [27] of 322 nM and a TGI [27] of 53.4 µM. The GI50 [28] was 549 nM, the TGI [28] was over 100 µM and the GI50 [29] was 560 nM. It also gave a TGI [29] of over 100 µM, a GI50 [30] of 170 nM and a TGI [30] of over 100 µM. The GI50 [31] was 209 nM, the TGI [31] was over 100 µM and the GI50 [32] was 790 nM. The TGI [32] was over 33.5 µM, the GI50 [33] was 500 nM and the TGI [33] was over 100 µM. For the same compound, the GI50 [34] was 169 nM, the TGI [34] was 3.17 µM and the GI50 [35] was 374 nM. It also gave a TGI [35] of over 100 µM, a GI50 [36] of 769 nM and a TGI [36] of over 100 µM. For the same compound, the GI50 [37] was 104 nM, the TGI [37] was over 100 µM and the GI50 [38] was 102 nM. For the same compound, the TGI [38] was 5.75 µM, the GI50 [39] was 153 nM and the TGI [39] was 1600 nM. The GI50 [40] was 566 nM, the TGI [40] was over 100 µM and the GI50 [41] was 173 nM. For the same compound, the TGI [41] was 1590 nM, the GI50 [42] was 510 nM and the TGI [42] was 4.19 µM. The GI50 [43] was 391 nM, the TGI [43] was 3.25 µM and the GI50 [44] was 138 nM. For the same compound, the TGI [44] was 1210 nM, the GI50 [45] was 142 nM and the TGI [45] was 789 nM. The GI50 [46] was 294 nM, the TGI [46] was over 100 µM and the GI50 [47] was 1370 nM. The TGI [47] was over 100 µM, the GI50 [48] was 84.8 nM and the TGI [48] was 1180 nM. The GI50 [49] was 351 nM, the TGI [49] was over 100 µM and the GI50 [50] was 760 nM. For the same compound, the TGI [50] was over 100 µM, the GI50 [51] was 23.3 nM and the TGI [51] was 217 nM. The GI50 [52] was 168 nM, the TGI [52] was 5.15 µM and the GI50 [53] was 1300 nM. The TGI [53] was over 100 µM, the GI50 [54] was 289 nM and the TGI [54] was 4.07 µM. For the same compound, the GI50 [55] was 122 nM, the TGI [55] was 929 nM and the GI50 [56] was 96.1 nM.
